# According to patent publication US20210113523A1, “Compositions For Treating And/Or Preventing Photodynamic Therapy Side Effects” (AC BIOSCIENCE SA, priority 2018, published 2021):
# Like-named read-outs stand apart in the source and are kept apart here.
# Legend:
# [1] = read-out: NO scavenging IC50; cited from earlier work
# [2] = 10 mg/kg; cited from earlier work
# [3] = read-out: 2,2-diphenyl-1-picrylhydrazyl scavenging IC50; cited from earlier work
# human neutrophils = experiment: ROS production of PMA-activated neutrophils (chemiluminescence); format: cell-based; conditions: activation by 100 ng/ml PMA; FIG. 1
# Description: ROS production is measured using a chemiluminescence standard procedure: briefly, one hundred microliters of human neutrophils (4×10^6/mL) were primed with TNF-α at 37° C. for 25 minutes. 100 μL luminol (1 μM final concentration) and HRP (62.5 U/mL final concentration) in HBSS were added, and 150-μL aliquots were transferred to a prewarmed 96-well luminometer plate. Light emission was recorded by a Berthold MicroLumat Plus luminometer (Berthold Technologies, Hartfordshire, United Kingdom) (data output is in relative light units per second)
# mast cells = experiment: Mast cell degranulation estimated by beta-hexosaminidase release (IgE/anti-IgE); format: cell-based; conditions: 1 hour after IgE stimulation
# Description: Degranulation was induced by the addition of IgE followed by the addition of anti-IgE Beta-hexosaminidase was measured 1 hour after IgE stimulation. Reference molecule was cromoglycate.
# activated mast cells = experiment: IL6 release from activated mast cells; format: cell-based; conditions: primed mast cells activated by anti IgE, 6 hours; FIG. 2
# Description: Mast cells were obtained from CD34+ progenitors cultivated during 8 weeks in the presence of stem cell factor and IL3. Some mast cells (light grey with spots) were primed during 5 days by IL4 and IgE. Primed mast cells were activated by anti IgE and IL6 release is measured 6 hours following the activation. Masitinib (Masi) a c-kit receptor inhibitor is taken as positive control. Dark grey corresponds to the basal release of IL6 in the absence of mast cells activation. Maximum release of resting mast cells were obtained by the use of a calcium ionophore.
# [4] = system: Chick Chorioallantoic Membrane (CAM) vessel network; experiment: CAM vessel network following PDT irradiation; format: in vivo
# Description: 5-ALA (20 mg/ml; pH=6.8) was topically applied on CAM 4 hours before PDT □ For Catechin samples, Catechin (at different concentrations: 1-30 μM) was topically applied on CAM 15 min before PDT-PDT: λ=405 nm irradiance=2.86 mW/cm2 light dose=1.2 J/cm2-10 μM Catechin has the most protective effect against PDT deleterious effect. 5-ALA: aminolevulinique acid.
# [5] = 10−4 M, control without IgE 0.132
# [6] = 10−5 M, control without IgE 0.135
compound,measurement,setting,value
Oc1cc(O)cc(/C=C/c2ccc(O)cc2O)c1 [Oxyresveratrol],IC50,[1],45.3 µM
same,brain infarct volume,[2],reducing
same,caspase-3 activation,[2],reducing
same,cytochrome c release,[2],reducing
same,IC50,[3],28.9 µM
"O=C1c2c(O)cc(O)cc2O[C@H](c2ccc(O)c(O)c2)[C@H]1O [DHQ, Dihydroquercetin]",reactive oxygen species (ROS) production by neutrophils,human neutrophils,inhibitory effect
same,beta-hexosaminidase release,mast cells; [5],0.28
same,beta-hexosaminidase release,mast cells; [6],0.52
same,IL6 release from activated mast cells,activated mast cells,inhibitor of IL6 release
(+)Catechin,Catechin concentration at which microvessel protection is evidenced (as low as),"[4]; presence of microvessels in the CAM vasculature network, FIG. 5A",1 µM
same,Catechin concentration with the most protective effect against PDT deleterious effect,"[4]; topically applied on CAM 15 min before PDT, tested 1-30 μM, 5-ALA 20 mg/ml",10 µM
"O=C(O)c1cc(=O)c2c(OCC(O)COc3cccc4oc(C(=O)O)cc(=O)c34)cccc2o1 [Reference molecule, cromoglycate, reference compound]",beta-hexosaminidase release,mast cells; [5],0.34
same,beta-hexosaminidase release,mast cells; [6],0.48
